According to ChEMBL document CHEMBL1201862, “PubChem BioAssay data set” (2004):
The source made the active and inactive calls.

Columns and labels:
[1] = target: T1, Heat shock factor protein 1 (Mus musculus, UniProt P38532); assay: HSF1 potentiators in luciferase reporter cells, confirmation, cell-based, NIH3T3, luminescence, dose retest (AID 435004); type: functional;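 note: stress induced by proteasome inhibitor MG132 added 30 min after compound; luciferase reporter driven by HSF1 response element in NIH3T3 cells; actives raise luminescence as potentiators of the MG132 stress response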
T1 sequence (P38532 whole entry): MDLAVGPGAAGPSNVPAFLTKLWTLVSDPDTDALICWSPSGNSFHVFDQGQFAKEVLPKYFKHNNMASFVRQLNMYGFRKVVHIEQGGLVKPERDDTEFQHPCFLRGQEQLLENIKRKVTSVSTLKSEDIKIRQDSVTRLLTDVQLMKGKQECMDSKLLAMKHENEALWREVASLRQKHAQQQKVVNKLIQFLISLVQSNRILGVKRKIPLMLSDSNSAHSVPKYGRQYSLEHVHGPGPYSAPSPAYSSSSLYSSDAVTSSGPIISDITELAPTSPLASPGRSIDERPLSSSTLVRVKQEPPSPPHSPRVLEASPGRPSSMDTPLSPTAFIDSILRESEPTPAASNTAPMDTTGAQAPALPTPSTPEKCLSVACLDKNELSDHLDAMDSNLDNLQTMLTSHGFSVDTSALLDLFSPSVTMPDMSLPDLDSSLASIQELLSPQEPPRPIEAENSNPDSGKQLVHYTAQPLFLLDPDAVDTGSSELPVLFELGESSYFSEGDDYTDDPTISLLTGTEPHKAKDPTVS

H9c2 = assay: cells; type: functional, cell-based; conditions: Rattus norvegicus, H9c2, Myocardium
Paired box protein Pax-8 = Paired box protein Pax-8 (Homo sapiens, UniProt Q06710); assay: inhibitors of PAX8-driven TPO luciferase reporter, dose response, RMG-I cells, cherry-pick (AID 687027); type: functional, cell-based;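 note: luciferase reporter driven by Pax8 target thyroperoxidase promoter measured by SteadyGlo luminescence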
Chain of Paired box protein Pax-8 (Q06710 whole entry): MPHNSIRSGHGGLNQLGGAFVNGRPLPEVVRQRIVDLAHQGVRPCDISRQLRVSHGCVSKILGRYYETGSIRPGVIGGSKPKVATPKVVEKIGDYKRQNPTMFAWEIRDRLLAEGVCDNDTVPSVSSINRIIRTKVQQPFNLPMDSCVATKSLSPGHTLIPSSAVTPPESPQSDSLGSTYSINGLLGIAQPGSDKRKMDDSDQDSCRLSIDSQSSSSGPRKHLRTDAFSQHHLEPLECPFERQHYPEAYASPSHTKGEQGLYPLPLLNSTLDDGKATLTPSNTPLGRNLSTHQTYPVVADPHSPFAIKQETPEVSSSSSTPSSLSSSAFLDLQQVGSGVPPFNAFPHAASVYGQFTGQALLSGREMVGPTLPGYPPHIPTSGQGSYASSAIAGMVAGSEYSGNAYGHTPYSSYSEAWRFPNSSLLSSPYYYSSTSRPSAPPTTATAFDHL

[2] = target: T2, Corticotropin-releasing factor receptor 2/Corticotropin-releasing factor-binding protein (Homo sapiens, UniProt P24387+Q13324); assay: activators of CRF receptor 2 with binding protein – uHTS hits, confirmation (AID 602473); type: functional; conditions: read-out: EC50_Mean
T2 sequence (Q13324 whole entry): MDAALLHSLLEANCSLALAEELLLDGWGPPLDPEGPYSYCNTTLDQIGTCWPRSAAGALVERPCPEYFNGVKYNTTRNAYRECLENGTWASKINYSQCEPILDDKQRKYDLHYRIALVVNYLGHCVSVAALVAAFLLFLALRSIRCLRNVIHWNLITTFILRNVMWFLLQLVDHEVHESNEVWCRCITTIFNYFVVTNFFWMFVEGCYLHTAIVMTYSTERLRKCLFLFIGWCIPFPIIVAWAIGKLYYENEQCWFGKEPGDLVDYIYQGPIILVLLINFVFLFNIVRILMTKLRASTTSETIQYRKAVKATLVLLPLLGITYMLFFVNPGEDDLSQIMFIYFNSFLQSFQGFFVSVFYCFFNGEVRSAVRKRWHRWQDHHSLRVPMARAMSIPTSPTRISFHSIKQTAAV
T2 sequence (P24387 whole entry): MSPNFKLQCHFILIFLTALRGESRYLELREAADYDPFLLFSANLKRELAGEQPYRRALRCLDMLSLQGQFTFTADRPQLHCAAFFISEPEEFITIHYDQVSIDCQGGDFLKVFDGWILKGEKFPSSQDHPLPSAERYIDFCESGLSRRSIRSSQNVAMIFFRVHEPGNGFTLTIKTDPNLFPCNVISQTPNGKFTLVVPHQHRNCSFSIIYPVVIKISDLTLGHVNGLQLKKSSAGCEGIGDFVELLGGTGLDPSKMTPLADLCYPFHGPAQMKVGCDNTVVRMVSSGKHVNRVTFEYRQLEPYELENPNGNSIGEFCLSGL

[3] = target: T2, Corticotropin-releasing factor receptor 2/Corticotropin-releasing factor-binding protein; assay: Dose Response confirmation of uHTS hits for small molecule antagonists of the CRF-binding protein and CRF-R2 receptor complex.; type: functional; conditions: read-out: IC50_Mean
[4] = growth suppression of PTEN-null colon cells, dose response, cell-based, HCT116 PTEN knockout (AID 1047); type: functional;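 note: HCT116 colon tumor cells with PTEN knocked out; cells exposed to compound for 60 hours before readout; potency for loss of cell viability measured by luminescence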
[5] = growth suppression of beta-catenin-knockout colon cells, dose response, cell-based, HCT116, human colon tumor (AID 1045); type: functional;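 note: HCT116 colon tumor cells with beta catenin knocked out; cells exposed to compound for 60 hours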
cells = type: functional
[6] = cytotoxicity toward NIH3T3 fibroblasts, dose response, counter-screen, cell-based, ATP luminescence, mouse fibroblasts (AID 2010); type: functional;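 note: cells exposed to compound for about 90 hours before reading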
[7] = inhibitors of intracellular T. cruzi replication, confirmation, NIH3T3 host cells, beta-gal luminescence (AID 2044); type: functional, cell-based;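 note: intracellular parasites grown in NIH/3T3 mouse fibroblasts as host cells; luminescent beta-galactosidase reporter signal from transgenic T. cruzi replicating inside host cells; inhibitors lower the luminescence signal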
[8] = target: FAD-linked sulfhydryl oxidase ALR (Homo sapiens, UniProt P55789); assay: inhibitors of human ALR sulfhydryl oxidase, dose response, biochemical, H2O2 detection, luminescence, cherry-pick (AID 493248)
Chain of FAD-linked sulfhydryl oxidase ALR (P55789 whole entry): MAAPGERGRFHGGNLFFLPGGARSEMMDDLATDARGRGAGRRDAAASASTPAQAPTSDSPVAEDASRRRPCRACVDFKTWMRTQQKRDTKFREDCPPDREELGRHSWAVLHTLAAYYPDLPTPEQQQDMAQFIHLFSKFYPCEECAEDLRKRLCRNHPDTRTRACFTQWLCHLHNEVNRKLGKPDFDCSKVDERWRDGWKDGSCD

## COCC(C)NC(=O)/C(=C/c1ccccc1)c1ccccc1 (stereo not drawn)
[1]
  EC50: > 260 µM (inactive)

## Cc1ccccc1/N=C/c1cc2c(cc1[N+](=O)[O-])OCO2
H9c2
  IC50: > 79 µM (inactive)

## C[C@@H]1CCCCO[C@@H](CN(C)CC2CCCCC2)[C@@H](C)CN([C@@H](C)CO)C(=O)c2cc(NC(=O)Nc3ccc(C(F)(F)F)cc3)ccc2O1
Paired box protein Pax-8
  AC50: 12 µM (active)

## O=C(NCN1CCCCC1)c1cnccn1
[2]
  EC50: > 53 µM (inactive)
[3]
  IC50: > 47.1 µM (inactive)

## CCN(CC)C(=O)c1c(C)nc2ccccn12
[2]
  EC50: > 53 µM (inactive)
[3]
  IC50: > 47.1 µM (inactive)

## CCC(Sc1nnc2c3ccccc3n(CC)c2n1)C(=O)Nc1sc2c(c1C#N)CCCC2 (stereo not drawn)
[4]
  EC50: 11.7 µM (active)
[5]
  EC50: 10.4 µM (active)

## N#Cc1ccc(NC(=O)COC(=O)CSc2nnc(-c3ccc(Cl)cc3)o2)cc1
[2]
  EC50: > 53 µM (inactive)
[3]
  IC50: > 47.1 µM (inactive)

## CCOC(=O)c1c(C)c(C(=O)Nc2ccc3c(c2)OCO3)c(C)n1C
[1]
  EC50: > 260 µM (inactive)

## CCC(C)c1ccc(OCCn2ccnc2)cc1 (stereo not drawn)
cells
  IC50: 22.6 µM (active)

## NCCc1nnc(SCc2ccc(F)cc2)o1
[1]
  EC50: > 260 µM (inactive)

## O=C1NC(c2ccc(Cl)c([N+](=O)[O-])c2)Nc2ccccc21 (stereo not drawn)
H9c2
  IC50: 21.9 µM (active)

## O=C(Oc1cccc2c(O)nccc12)c1ccccc1
H9c2
  IC50: > 79 µM (inactive)

## C=CCNCCOCCSc1ccc(Cl)cc1
[1]
  EC50: > 260 µM (inactive)

## COc1ccccc1N1CCN(C(=O)C(=O)c2cn(CC(=O)N3CCCC3)c3ccccc23)CC1
[2]
  EC50: > 53 µM (inactive)
[3]
  IC50: > 47.1 µM (inactive)

## CC(C)(C)OC(=O)N1CCCN(C(=O)Nc2cccc(Cl)c2)CC1
[2]
  EC50: > 53 µM (inactive)
[3]
  IC50: > 47.1 µM (inactive)

## O=C(CCc1nc(O)c2ccccc2n1)N1CCN(S(=O)(=O)c2ccc(F)cc2)CC1
H9c2
  IC50: > 79 µM (inactive)

## CS(=O)(=O)N(CC(=O)N/N=C/c1cc([N+](=O)[O-])ccc1Cl)c1ccccc1
[4]
  EC50: 26.4 µM (active)
[5]
  EC50: 24.4 µM (active)

## O=C(c1ccco1)N1CCN(C(=O)c2cc(-c3ccncc3)nc3ccc(Br)cc23)CC1
[6]
  EC50: > 60 µM (not active)
[7]
  EC50: 3.83 µM (active)
H9c2
  IC50: 7.04 µM (active)

## COc1ccc(C(=O)COC(=O)CCNS(=O)(=O)c2ccc(NC(C)=O)cc2)c(OC)c1
[2]
  EC50: > 53 µM (inactive)
[3]
  IC50: > 47.1 µM (inactive)

## Cc1ccc(N2CC(C(=O)NCc3nnc(O)c4ccccc34)CC2=O)cc1C (stereo not drawn)
H9c2
  IC50: > 79 µM (inactive)

## O=C1CC(NNc2ccccc2)C(=O)N1c1ccccc1 (stereo not drawn)
[8]
  AC50: 0.382 µM (active)
[1]
  EC50: > 260 µM (inactive)

## CSc1ccc(C2C(C#N)=C(N)N(c3ccccc3)C3=C2C(=O)CCC3)cc1 (stereo not drawn)
[1]
  EC50: 27 µM (active)

## CC(=O)Nc1cccc(NC(=O)CSc2ccc(-c3ccccn3)nn2)c1
H9c2
  IC50: 24.5 µM (active)

## COc1cccc(COC(=O)CCNC(=O)c2ccc(Cl)cc2)c1OC
cells
  IC50: 25.5 µM (active)

## C=CCn1c(SCC(=O)Nc2c(C)cccc2C)nnc1-c1ccncc1
[2]
  EC50: > 53 µM (inactive)
[3]
  IC50: > 47.1 µM (inactive)

## CC(C)(C)C(=O)Nc1cccc(-c2nnc(-c3cccc(NC(=O)C(C)(C)C)c3)o2)c1
H9c2
  IC50: > 79 µM (inactive)
